Results reported in US20080175888A1, “Combination Therapy Comprising Actinidia and Steroids and Uses Thereof” (priority 2005, published 2008).

Test system: production of IL-13 and IFN-γ by OVA-stimulated mouse splenocytes
Assay: Cytokine production in OVA-stimulated splenocyte cultures, ELISA (Example 3)
Assay type: cell-based
Settings: 3 days exposure in vitro, FIG. 5A/5B
Description: The purpose of this study was to assess the ability of A. arguta extracts that originate from plant parts other than the fruit, or from alternative preparations of the fruit (i.e., other than the extracts described in U.S. Patent Publication No. 2004/0037909, supra), to modulate cytokine production (IL-13 and IFNγ) in splenocyte cultures derived from ovalbumin-sensitized mice, using ELISA analysis. The following samples (prepared as described above) were tested: water extracts of the stem, root, and bark of A. arguta, prepared as described in Example 1; “boiled” fresh fruit preparations; the fruit juice concentrate prepared as described in Example 1; FD001 (large scale equivalent of PG102T) prepared as described in Example 1; FD001 powder prepared as described in Example 1 (used for clinical trials described below); a room temperature water extract of the dried A. arguta fruit; the EtOAc extract prepared as described in Example 1; and aqueous remainder, also described in Example 1. In addition, the activity of three known immunosuppressive compounds, cyclosporin, dexamethasone, and quercetin were evaluated as controls.
Preparation of the splenocytes was performed in a manner identical to that described above for Example 2. […]
The cytokine levels in the culture supernatants from all treatment and control wells were determined by ELISA assay. […]

O=c1c(O)c(-c2ccc(O)c(O)c2)oc2cc(O)cc(O)c12 [quercetin]
concentration of potent activity (suppression of IL-13 and IFN-γ): 1 to 25 µM
